From PubChem BioAssay (NCI)
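Dose response: 5 concentrations. Exposure: 48 h. Format: 96-well plates. Endpoint: linear interpolation; highest concentration if not reached. The concentration for 50% growth inhibition is given as GI50. Definition used: TGI = concentration required for complete inhibition of growth.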 Where a SMILES comes first, the peptide text is derived from it. Bridges are numbered along the chain shown (N, C = ends). [ ]: non-standard residue; d: D form. aThr = C[C@H](O)[C@H](N)C(=O)O

Columns and labels:
Test in all cases: NCI tumour cell line growth inhibition, 48 h
A549 NSCLC = system: A549 NSCLC
HCT-116 colon = system: HCT-116 colon
HL-60(TB) leukemia = system: HL-60(TB) leukemia
K-562 leukemia = system: K-562 leukemia
M14 melanoma = system: M14 melanoma
NCI-H226 lung = system: NCI-H226 lung
OVCAR-8 ovarian = system: OVCAR-8 ovarian
U251 CNS = system: U251 CNS
UO-31 renal = system: UO-31 renal
HOP-92 NSCLC = system: HOP-92 NSCLC

Row | Structure (SMILES) | GI50 (A549 NSCLC) [µM] | TGI (A549 NSCLC) [µM] | GI50 (HCT-116 colon) [µM] | TGI (HCT-116 colon) [µM] | GI50 (HL-60(TB) leukemia) [µM] | TGI (HL-60(TB) leukemia) [µM] | GI50 (K-562 leukemia) [µM] | TGI (K-562 leukemia) [µM] | GI50 (M14 melanoma) [µM] | TGI (M14 melanoma) [µM] | GI50 (NCI-H226 lung) [µM] | TGI (NCI-H226 lung) [µM] | GI50 (OVCAR-8 ovarian) [µM] | TGI (OVCAR-8 ovarian) [µM] | GI50 (U251 CNS) [µM] | TGI (U251 CNS) [µM] | GI50 (UO-31 renal) [µM] | TGI (UO-31 renal) [µM] | GI50 (HOP-92 NSCLC) [µM] | TGI (HOP-92 NSCLC) [µM]
1 | COc1ccc(Nc2cnc3cc(N)cc(N)c3n2)cc1 | 26.8 | > 100 | 23.8 | 54.1 | 5.49 | 73.7 | 5.69 | > 100 | 14.5 | 28 | 17.2 | 45.8 | 14.1 | 29.4 | 14.9 | 35.5 | 25.7 | 98.5 |  | 
2 | O=C(COc1ccc(/C=C2\Oc3ccccc3C2=O)cc1)Nc1nc2ccccc2s1 | 4.96 | > 72.7 | 19.3 | > 100 | 1.68 | 3.51 | 16.7 | > 100 | 38.4 | > 100 | 23.3 | > 95.5 | 0.321 | > 100 | 6.35 | > 100 | 13 | > 57.6 |  | 
3 | C=C(CN1CCc2[nH]c3ccc(F)cc3c2C1)c1ccc(C(=O)Nc2ccccc2N)cc1 | 1.17 | 9.17 | 0.367 | 5.04 |  |  | 1.06 | 14.6 | 0.78 | 4.75 | 2.47 | 7.32 | 0.772 | 3.82 | 2.91 | 11.2 | 0.997 | 4.14 | 10.7 | 36.7
4 | CC(=O)Nc1ccc(C2CC(c3ccc([N+](=O)[O-])cc3)=Nc3ccccc3S2=O)cc1 (configuration not stated) |  | > 100 |  |  |  | 42.2 |  | 23.1 |  | > 100 |  | 64.5 |  | 89.2 |  |  |  | 46.5 |  | 
5 | CC12OC(=O)C(C#N)C1(C)C1C(=O)CCCC12 (configuration not stated) |  | > 100 |  | > 100 |  | > 100 |  | > 100 |  | > 100 |  | > 100 |  | > 100 |  | > 100 |  | > 100 |  | 
6 | COc1ccc(-c2[nH]c3ccc(OC)cc3c2C=C(C#N)C#N)cc1 | 3.78 | > 100 | 0.477 | > 100 |  |  | 0.343 | > 100 | 0.376 | > 100 | 1.45 | > 100 | > 100 | > 100 | 0.607 | > 100 | > 100 | > 100 | > 47.9 | > 100
7 | O=C1C2C3C=CC(C2C(=O)N1CO)C1C2C(=O)N(CO)C(=O)C2C31 (configuration not stated) |  | > 88.4 |  | > 59.8 |  |  |  | > 82.5 |  | > 100 |  | > 100 |  | > 75.8 |  | > 100 |  | > 100 |  | > 100
8 | COc1ccc2nc(NC(=O)C(=O)CC(=O)c3ccc([N+](=O)[O-])cc3)sc2c1 |  | > 100 |  | > 100 |  |  |  | > 100 |  | > 100 |  | > 100 |  | > 100 |  | > 100 |  | > 100 |  | > 100
9 | COCCOC1=C(Cl)C(=O)c2ccccc2C1=O | 4.33 | 21.8 | 1.82 | 3.58 | 1.58 | 4.87 |  |  |  |  | 4.18 | 15.8 | 3.11 | 10.7 | 3.14 | 10 | 3.07 | 16 | 1.41 | 2.93
10 | CC(=O)Oc1c(C(=O)[O-])cc(C(C)C)cc1C(C)C.CC(=O)Oc1c(C(=O)[O-])cc(C(C)C)cc1C(C)C.CC(=O)Oc1c(C(=O)[O-])cc(C(C)C)cc1C(C)C.CC(=O)Oc1c(C(=O)[O-])cc(C(C)C)cc1C(C)C.[Cu+2].[Cu+2] | 32.4 | > 100 | 28.7 | > 100 | 22.7 | 81.9 |  |  | 49.3 | > 100 | 69.3 | > 100 | 30.6 | > 100 | 19.9 | 51.5 | 50.7 | > 100 | 45.5 | > 100
11 | [O]=[V]([OH])([OH])[OH] | > 100 | > 100 | > 100 | > 100 |  |  | > 100 | > 100 | > 100 | > 100 | > 100 | > 100 | > 100 | > 100 | > 100 | > 100 | > 100 | > 100 |  | 
12 | Cc1ccc(S(=O)(=O)NCCCCC(N)C(=O)O)cc1 (configuration not stated) |  | > 100 |  | > 100 |  |  |  | > 100 |  | > 100 |  | > 100 |  | > 100 |  | > 100 |  | > 100 |  | > 100
13 | CC(=O)NC1C(O[C@H]2C[C@H]3[C@@H]4CC=C5C[C@@H](O)CC[C@]5(C)[C@H]4CC[C@]3(C)[C@H]2[C@H](C)C(=O)CCC(C)C)OCC(O)C1O (some centres not stated) | 5.45 | 15.3 | 1.39 | 5.82 |  |  | 1.35 | 5.16 | 0.732 | 1.57 |  |  | 15.7 | > 42.5 | 2.34 | 11.5 | 1.18 | 3.52 | 5.1 | 15.5
14 | O=C(O)CN(CCN(CC(=O)O)CC(=O)O)CC(=O)O.[Mn+2] | > 100 | > 100 | > 100 | > 100 | > 100 | > 100 | > 100 | > 100 | > 100 | > 100 | > 100 | > 100 | > 100 | > 100 | > 100 | > 100 | > 100 | > 100 |  | 
15 | CC(C)C[C@@H]1NC(=O)[C@@H]2CCCN2C(=O)[C@@H]2CCCN2C(=O)[C@H](CC(C)C)NC(=O)[C@H](CO)NC(=O)[C@H](CCCCN)NC(=O)[C@H]([C@H](C)O)NC(=O)[C@@H]2CSSC[C@@H](NC1=O)C(=O)N[C@@H](Cc1ccccc1)C(=O)N1CCC[C@H]1C(=O)N[C@@H](CC(=O)O)C(=O)NCC(=O)N[C@@H](CCCN=C(N)N)C(=O)N2 (cyclo(C[aThr]KSLPPL[dC]FPDGR); disulfide 1-9) | > 50 | > 50 | > 50 | > 50 |  |  | > 50 | > 50 |  |  | > 50 | > 50 | > 50 | > 50 | > 50 | > 50 | > 50 | > 50 | > 50 | > 50
16 | C[C@H](C(=O)O)C(=O)NC(=O)N(Cc1ccccc1)N=O |  | > 100 |  | > 100 |  |  |  | > 100 |  | > 100 |  |  |  | > 100 |  | > 100 |  | > 100 |  | 
17 | OC(c1ccccc1Br)(c1ccccc1Br)C(F)(F)F |  | > 100 |  | 39.4 |  |  |  |  |  | > 100 |  | 26.5 |  | > 100 |  | 34.3 |  | 75.1 |  | 
18 | c1ccc(C(c2ccccc2)c2ccccn2)cc1 |  | > 100 |  | > 100 |  |  |  | > 100 |  | > 100 |  | > 100 |  | > 100 |  | > 100 |  | > 100 |  | 
19 | Nc1nc(=S)c2ncn(C3OC(COP(=O)(O)O)C(O)C3O)c2[nH]1 (configuration not stated) | 4.69 | > 100 | 0.5 | > 100 | 2.37 | > 100 | 0.965 | > 100 | 0.503 | 32.8 | 9.9 | > 100 | 0.715 | > 100 | 8.08 | > 100 | 1.98 | > 100 |  | 
20 | C(=Nc1nc(SCc2ccccc2)nc2[nH]ncc12)c1cccs1 | 60 | > 100 |  |  |  |  | 35 | > 100 | 34.7 | > 100 | 45.7 | > 100 | 39.6 | > 100 | 43.6 | > 100 | 73.8 | > 100 | 10.7 | 50
21 | Cc1cccc(Cn2cc(CO)c3cnccc32)c1 | > 100 | > 100 | 36.8 | > 100 |  |  |  |  | > 100 | > 100 | 32 | > 100 | 53.7 | > 100 | 62.5 | > 100 | 46.4 | > 100 | 7.88 | 79.4
22 | CC(=O)[CH-]C(=O)c1ccccc1.[C-]#[O+].[C-]#[O+].[Ir] | > 100 | > 100 |  |  | > 100 | > 100 |  |  |  |  | > 100 | > 100 | > 100 | > 100 | > 100 | > 100 | > 100 | > 100 |  | 
23 | N#CC(C#N)=C/C=C(\Sc1ccc(Cl)cc1)c1ccc(F)cc1 | 8.61 | 32.3 | 0.0671 | 0.508 |  |  | 0.0844 | > 100 | 0.729 | 2.61 | 2.72 | 17.8 | 5.89 | 12.7 | 1.23 | > 34.5 | 1.85 | > 40.3 | 0.501 | 13.2
